# Measurements as given in publication PMC10300102, “In vivo inhibition of nuclear ACE2 translocation protects against SARS-CoV-2 replication and lung damage through epigenetic imprinting” (Nature Communications, 2023).
# Where two headings read alike, the source gives them in different places. Where a SMILES comes first, the peptide text is derived from it. The star is where a group is joined. Myristoyl = CCCCCCCCCCCCCC(=O)*
# How the values were obtained:
# [1] = system: SARS-CoV-2 (QLD02) in Caco2 cells; conditions: cited from earlier work
# H3K27ac in CD14+ PBMCs = experiment: H3K27ac nuclear fluorescence intensity and clock scan in CD14+ PBMCs; type: cell-based, human; conditions: CD14+ PBMCs of PB and PI patients
# [2] = system: ACE2, ACE2me, SARS-CoV-2 spike protein; parameters: species or system golden Syrian hamsters; conditions: hamster, in vivo
# SARS-CoV-2 = type: in vivo, golden Syrian hamsters
# Mouse tolerance studies = type: in vivo, C57BL/6 J mice; parameters: Mouse organ weight - i.v. treatment, Brain / Mouse organ weight - i.v. treatment, Heart / Mouse organ weight - i.v. treatment, Kidney / Mouse organ weight - i.v. treatment, Liver / Mouse organ weight - i.v. treatment, Lungs / Mouse organ weight - i.v. treatment, Spleen: unit not given here
# Experimental: For NACE2i intraperitoneal (i.p.) studies, female C57BL/6 J mice (6-8 weeks, 3 per group) were treated with a single bolus dose of NACE2i at 3, 10, 30, or 100 mg/kg intraperitoneally for seven days. For NACE2i intravenous (i.v.) studies, male C57BL/6 J mice (6–8 weeks, 5 per group) were treated with daily bolus doses of either sodium chloride 0.9% vehicle or NACE2i at 3, 10, or 30 mg/kg intravenously for six days. For ACE2i studies, male C57BL/6 J mice (6 weeks, 5 per group) were treated with daily bolus doses of either saline vehicle or ACE2i at 10, 30, or 100 mg/kg intravenously or at 3, 10, and 30 mg/kg intranasally (i.n.) for six days. All treatments were administered on day 1, and all mice were observed and weighed daily prior to being euthanized for organ examination. All mice were purchased from the Animal Resources Centre (Canning Vale, Western Australia, Australia) and studies were carried out by Agilex Biolabs (St Lucia, Queensland, Australia). Animals were maintained in housing rooms under controlled environmental conditions: individually ventilated cages (IVCs) with a 12/12 light/dark cycle. The ambient temperature is set to 20–25 °C and relative humidity at 30-70% rH. The University of Queensland Animal Ethics Committee assessed and approved all studies (project code 2021/AE000659).
smiles,measurement,setting,value
CCCCCCCCCCCCCC(=O)N[C@H](C(=O)NCC(=O)N[C@H](C(=O)N[C@@H](CCCNC(=N)N)C(=O)N[C@@H](CC(=O)O)C(=O)N[C@@H](CCCNC(=N)N)C(=O)N[C@@H](CCCCN)C(=O)N[C@@H](CCCCN)C(=O)N[C@@H](CCCCN)C(=O)N[C@@H](CC(N)=O)C(=O)N[C@@H](CCCCN)C(=O)N[C@@H](C)C(=O)N[C@@H](CCCNC(=N)N)C(=O)N[C@@H](CO)C(=O)O)[C@@H](C)CC)[C@@H](C)O [NACE2i] (Myristoyl-TGIRDRKKKNKARS-OH),SARS-CoV-2 replication in Caco2 cells,[1],significantly inhibit
same,H3K7ac mark,H3K27ac in CD14+ PBMCs,successfully induced
same,ACE2me in the bronchioles,[2],significantly upregulated
same,Fn/c of ACE2,[2],significantly reduced
same,SARS-CoV-2 spike protein expression in bronchioles,[2],significantly reduced or eliminated
same,global ACE2 and proportion of ACE2+ cells,[2],no significant change
same,nuclear ACE2 expression in bronchiolar epithelial cells,[2],significantly reduced
same,proportion of cells co-expressing ACE2 and ACE2me,[2],increased
same,viral RNA in the lungs,"SARS-CoV-2; hamster, in vivo",significant reductions
same,decrease in lung viral RNA normalized to vehicle controls,"SARS-CoV-2; n=7, 15 mg/kg",88%
same,decrease in lung viral RNA normalized to vehicle controls,"SARS-CoV-2; n=8, 100 mg/kg",96%
same,Diarrhoea - Mild (number of animals),"Mouse tolerance studies; IP route, 3 mg/kg, n = 3",0
same,No abnormalities (number of animals),"Mouse tolerance studies; IP route, 3 mg/kg, n = 3",3
same,Palpebral Closure - Mild (number of animals),"Mouse tolerance studies; IP route, 3 mg/kg, n = 3",0
same,Piloerection - Mild (number of animals),"Mouse tolerance studies; IP route, 3 mg/kg, n = 3",0
same,Reduced Activity - Mild (number of animals),"Mouse tolerance studies; IP route, 3 mg/kg, n = 3",0
same,Reduced Activity - Moderate (number of animals),"Mouse tolerance studies; IP route, 3 mg/kg, n = 3",0
same,Right limb raised - Mild (number of animals),"Mouse tolerance studies; IP route, 3 mg/kg, n = 3",0
same,Diarrhoea - Mild (number of animals),"Mouse tolerance studies; IP route, 10 mg/kg, n = 3",0
same,No abnormalities (number of animals),"Mouse tolerance studies; IP route, 10 mg/kg, n = 3",3
same,Palpebral Closure - Mild (number of animals),"Mouse tolerance studies; IP route, 10 mg/kg, n = 3",0
same,Piloerection - Mild (number of animals),"Mouse tolerance studies; IP route, 10 mg/kg, n = 3",0
same,Reduced Activity - Mild (number of animals),"Mouse tolerance studies; IP route, 10 mg/kg, n = 3",0
same,Reduced Activity - Moderate (number of animals),"Mouse tolerance studies; IP route, 10 mg/kg, n = 3",0
same,Right limb raised - Mild (number of animals),"Mouse tolerance studies; IP route, 10 mg/kg, n = 3",0
same,Diarrhoea - Mild (number of animals),"Mouse tolerance studies; IP route, 30 mg/kg, n = 3",0
same,No abnormalities (number of animals),"Mouse tolerance studies; IP route, 30 mg/kg, n = 3",0
same,Palpebral Closure - Mild (number of animals),"Mouse tolerance studies; IP route, 30 mg/kg, n = 3",1
same,Piloerection - Mild (number of animals),"Mouse tolerance studies; IP route, 30 mg/kg, n = 3",0
same,Reduced Activity - Mild (number of animals),"Mouse tolerance studies; IP route, 30 mg/kg, n = 3",3
same,Reduced Activity - Moderate (number of animals),"Mouse tolerance studies; IP route, 30 mg/kg, n = 3",0
same,Right limb raised - Mild (number of animals),"Mouse tolerance studies; IP route, 30 mg/kg, n = 3",3
same,Diarrhoea - Mild (number of animals),"Mouse tolerance studies; IP route, 100 mg/kg, n = 3",1
same,No abnormalities (number of animals),"Mouse tolerance studies; IP route, 100 mg/kg, n = 3",0
same,Palpebral Closure - Mild (number of animals),"Mouse tolerance studies; IP route, 100 mg/kg, n = 3",0
same,Piloerection - Mild (number of animals),"Mouse tolerance studies; IP route, 100 mg/kg, n = 3",2
same,Reduced Activity - Mild (number of animals),"Mouse tolerance studies; IP route, 100 mg/kg, n = 3",2
same,Reduced Activity - Moderate (number of animals),"Mouse tolerance studies; IP route, 100 mg/kg, n = 3",2
same,Right limb raised - Mild (number of animals),"Mouse tolerance studies; IP route, 100 mg/kg, n = 3",0
same,Hunched Posture - Mild (number of animals),"Mouse tolerance studies; IV route, 3 mg/kg, n = 5",0
same,No abnormalities (number of animals),"Mouse tolerance studies; IV route, 3 mg/kg, n = 5",5
same,Palpebral Closure - Mild (number of animals),"Mouse tolerance studies; IV route, 3 mg/kg, n = 5",0
same,Piloerection - Mild (number of animals),"Mouse tolerance studies; IV route, 3 mg/kg, n = 5",0
same,Reduced Activity - Mild (number of animals),"Mouse tolerance studies; IV route, 3 mg/kg, n = 5",0
same,Reduced Activity - Moderate (number of animals),"Mouse tolerance studies; IV route, 3 mg/kg, n = 5",0
same,Tremors - Mild (number of animals),"Mouse tolerance studies; IV route, 3 mg/kg, n = 5",0
same,Hunched Posture - Mild (number of animals),"Mouse tolerance studies; IV route, 10 mg/kg, n = 5",0
same,No abnormalities (number of animals),"Mouse tolerance studies; IV route, 10 mg/kg, n = 5",5
same,Palpebral Closure - Mild (number of animals),"Mouse tolerance studies; IV route, 10 mg/kg, n = 5",0
same,Piloerection - Mild (number of animals),"Mouse tolerance studies; IV route, 10 mg/kg, n = 5",0
same,Reduced Activity - Mild (number of animals),"Mouse tolerance studies; IV route, 10 mg/kg, n = 5",0
same,Reduced Activity - Moderate (number of animals),"Mouse tolerance studies; IV route, 10 mg/kg, n = 5",0
same,Tremors - Mild (number of animals),"Mouse tolerance studies; IV route, 10 mg/kg, n = 5",0
same,Hunched Posture - Mild (number of animals),"Mouse tolerance studies; IV route, 30 mg/kg, n = 5",1
same,No abnormalities (number of animals),"Mouse tolerance studies; IV route, 30 mg/kg, n = 5",0
same,Palpebral Closure - Mild (number of animals),"Mouse tolerance studies; IV route, 30 mg/kg, n = 5",1
same,Piloerection - Mild (number of animals),"Mouse tolerance studies; IV route, 30 mg/kg, n = 5",0
same,Reduced Activity - Mild (number of animals),"Mouse tolerance studies; IV route, 30 mg/kg, n = 5",4
same,Reduced Activity - Moderate (number of animals),"Mouse tolerance studies; IV route, 30 mg/kg, n = 5",5
same,Tremors - Mild (number of animals),"Mouse tolerance studies; IV route, 30 mg/kg, n = 5",5
same,"Mouse organ weight - i.v. treatment, Brain","Mouse tolerance studies; S 1f, i.v. 3 mg/kg, mean, N 5",452.46
same,"Mouse organ weight - i.v. treatment, Heart","Mouse tolerance studies; S 1f, i.v. 3 mg/kg, mean, N 5",113.88
same,"Mouse organ weight - i.v. treatment, Kidney","Mouse tolerance studies; S 1f, i.v. 3 mg/kg, mean, N 5",265.49
same,"Mouse organ weight - i.v. treatment, Liver","Mouse tolerance studies; S 1f, i.v. 3 mg/kg, mean, N 5",1316.2
